Measurements as given in ChEMBL document CHEMBL1149085, “Potential utility of histamine H3 receptor antagonist pharmacophore in antipsychotics” (Bioorg Med Chem Lett, 2009).

Experiments:
D(3) dopamine receptor = D(3) dopamine receptor (Homo sapiens, UniProt P35462); assay: biochemical
Description: Displacement of [3H]spiperone from human dopamine D3 receptor expressed in CHO cells

D(1A) dopamine receptor = D(1A) dopamine receptor (Homo sapiens, UniProt P21728); assay: biochemical
Description: Displacement of [3H]SCH23390 from human dopamine D1 receptor expressed in HEK cells

Histamine H3 receptor = Histamine H3 receptor (Homo sapiens, UniProt Q9Y5N1); assay: biochemical; assay type: cell-based, HEK293
Sequence of Histamine H3 receptor (Q9Y5N1 whole entry): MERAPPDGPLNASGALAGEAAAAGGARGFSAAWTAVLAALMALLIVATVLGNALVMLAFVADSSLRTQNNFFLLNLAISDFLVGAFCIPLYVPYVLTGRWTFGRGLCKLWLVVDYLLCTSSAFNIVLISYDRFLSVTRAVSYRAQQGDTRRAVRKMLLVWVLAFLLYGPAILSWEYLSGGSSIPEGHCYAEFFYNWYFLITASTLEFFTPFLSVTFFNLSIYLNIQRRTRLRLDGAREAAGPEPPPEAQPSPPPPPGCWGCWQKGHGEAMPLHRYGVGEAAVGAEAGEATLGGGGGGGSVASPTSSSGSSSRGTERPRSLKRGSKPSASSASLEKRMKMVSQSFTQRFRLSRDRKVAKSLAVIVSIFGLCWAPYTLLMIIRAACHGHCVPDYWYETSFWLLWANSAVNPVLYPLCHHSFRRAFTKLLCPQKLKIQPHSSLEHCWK
Description: Displacement of [125I]iodoproxyfan from human histamine H3 receptor expressed in CHO/HEK293 cells

D(2) dopamine receptor = D(2) dopamine receptor (Homo sapiens, UniProt P14416); assay: biochemical; assay type: cell-based, CHO
Sequence of D(2) dopamine receptor (P14416 whole entry): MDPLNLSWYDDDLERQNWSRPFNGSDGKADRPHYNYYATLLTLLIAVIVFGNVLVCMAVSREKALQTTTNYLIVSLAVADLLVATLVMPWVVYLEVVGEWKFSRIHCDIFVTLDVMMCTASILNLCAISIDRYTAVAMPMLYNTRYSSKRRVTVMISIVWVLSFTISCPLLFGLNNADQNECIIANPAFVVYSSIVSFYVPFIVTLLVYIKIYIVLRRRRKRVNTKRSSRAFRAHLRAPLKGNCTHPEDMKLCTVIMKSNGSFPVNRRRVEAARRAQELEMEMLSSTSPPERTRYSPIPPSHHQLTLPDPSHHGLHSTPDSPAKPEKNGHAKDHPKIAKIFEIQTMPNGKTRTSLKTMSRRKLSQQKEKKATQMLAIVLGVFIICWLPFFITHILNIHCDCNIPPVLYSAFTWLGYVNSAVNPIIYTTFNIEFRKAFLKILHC
Description: Displacement of [3H]spiperone from human dopamine D2 receptor expressed in CHO cells

D(1B) dopamine receptor = D(1B) dopamine receptor (Homo sapiens, UniProt P21918); assay: biochemical
Sequence of D(1B) dopamine receptor (P21918 whole entry): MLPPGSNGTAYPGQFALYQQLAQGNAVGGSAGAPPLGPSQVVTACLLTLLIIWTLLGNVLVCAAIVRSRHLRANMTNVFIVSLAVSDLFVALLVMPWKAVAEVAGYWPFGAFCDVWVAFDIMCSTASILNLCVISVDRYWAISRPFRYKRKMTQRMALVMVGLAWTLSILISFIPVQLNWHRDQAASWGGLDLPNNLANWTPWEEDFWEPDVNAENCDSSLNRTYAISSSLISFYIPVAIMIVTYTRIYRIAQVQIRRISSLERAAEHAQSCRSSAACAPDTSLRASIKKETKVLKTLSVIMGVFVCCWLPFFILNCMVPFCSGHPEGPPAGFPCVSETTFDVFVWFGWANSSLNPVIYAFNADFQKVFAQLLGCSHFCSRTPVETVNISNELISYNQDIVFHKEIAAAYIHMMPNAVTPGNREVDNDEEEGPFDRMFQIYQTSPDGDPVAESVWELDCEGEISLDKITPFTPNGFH
Description: Displacement of [3H]SCH23390 from human dopamine D5 receptor expressed in HEK cells

Mus musculus = organism: Mus musculus; assay: animal or person; assay type: functional; conditions: Swiss, Cerebral cortex, po, 1.5 h
Description: Antagonist activity at histamine H3 receptor in po dosed Swiss mouse cerebral cortex assessed as Ntau-methylhistamine level after 90 mins by radioimmunoassay

Sequence of D(3) dopamine receptor (P35462 whole entry): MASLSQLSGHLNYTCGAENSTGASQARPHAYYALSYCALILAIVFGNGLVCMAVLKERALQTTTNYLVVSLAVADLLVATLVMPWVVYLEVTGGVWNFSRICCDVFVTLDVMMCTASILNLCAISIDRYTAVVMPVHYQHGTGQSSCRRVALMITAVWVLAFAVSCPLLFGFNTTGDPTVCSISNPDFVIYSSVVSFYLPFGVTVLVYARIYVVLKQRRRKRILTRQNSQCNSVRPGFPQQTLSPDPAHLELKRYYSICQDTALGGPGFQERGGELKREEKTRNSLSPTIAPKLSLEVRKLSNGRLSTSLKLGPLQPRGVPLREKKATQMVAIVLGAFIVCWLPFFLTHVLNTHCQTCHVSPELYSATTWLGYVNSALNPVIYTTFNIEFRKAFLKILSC
Sequence of D(1A) dopamine receptor (P21728 whole entry): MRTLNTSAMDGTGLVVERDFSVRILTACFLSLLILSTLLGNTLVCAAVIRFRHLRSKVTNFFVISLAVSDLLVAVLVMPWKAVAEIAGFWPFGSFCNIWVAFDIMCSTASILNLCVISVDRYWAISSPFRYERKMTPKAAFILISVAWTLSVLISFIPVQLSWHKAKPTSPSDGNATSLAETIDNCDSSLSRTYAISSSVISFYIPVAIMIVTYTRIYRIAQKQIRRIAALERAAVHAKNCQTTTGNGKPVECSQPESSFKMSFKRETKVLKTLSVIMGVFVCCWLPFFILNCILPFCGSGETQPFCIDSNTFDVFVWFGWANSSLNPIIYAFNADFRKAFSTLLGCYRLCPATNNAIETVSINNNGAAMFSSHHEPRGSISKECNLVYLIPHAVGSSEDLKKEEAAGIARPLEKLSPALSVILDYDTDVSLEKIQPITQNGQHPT

Compound	Ki (D(3) dopamine receptor)	Ki (D(1A) dopamine receptor)	Ki (Histamine H3 receptor)	Ki (D(2) dopamine receptor)	Ki (D(1B) dopamine receptor)	ED50 (Mus musculus)
O=C(OCCN1CCN(CCCN2c3ccccc3Sc3ccc(C(F)(F)F)cc32)CC1)c1ccc(OCCCN2CCCCC2)cc1	15 nM	203 nM	0.042 nM	47 nM	265 nM	–
CN(CCC=C1c2ccccc2CCc2ccccc21)C(=O)Cc1ccc(OCCCN2CCCCC2)cc1	326 nM	879 nM	4.9 nM	904 nM	> 1000 nM	–
CN(CCC=C1c2ccccc2CCc2ccccc21)Cc1ccc(OCCCN2CCCCC2)cc1	67 nM	305 nM	0.25 nM	101 nM	273 nM	> 10 mg/kg
CN(CCCN1c2ccccc2Sc2ccc(Cl)cc21)Cc1ccc(OCCCN2CCCCC2)cc1	50 nM	232 nM	1.21 nM	41 nM	153 nM	–
CN(CCC=C1c2ccccc2CCc2ccccc21)C(=O)c1ccc(OCCCN2CCCCC2)cc1	243 nM	> 1000 nM	3.5 nM	> 1000 nM	> 1000 nM	–
Clc1ccc2c(c1)N=C(N1CCN(Cc3ccc(OCCCN4CCCCC4)cc3)CC1)c1ccccc1N2	223 nM	866 nM	3.27 nM	285 nM	921 nM	–
CN(CCCC12CCC(c3ccccc31)c1ccccc12)Cc1ccc(OCCCN2CCCCC2)cc1	149 nM	203 nM	0.358 nM	146 nM	265 nM	–
CN(CC/C=C1\c2ccccc2Sc2ccc(Cl)cc21)Cc1ccc(OCCCN2CCCCC2)cc1	50 nM	248 nM	1.54 nM	52 nM	–	–
CN(C)CCC=C1c2ccccc2CCc2ccccc21 [AMITRIPTYLINE]	206 nM	[…]	> 1000 nM	196 nM	170 nM	–
CN(C)CC/C=C1/c2ccccc2Sc2ccc(Cl)cc21 [CHLORPROTHIXENE]	4.56 nM	–	–	2.96 nM	9 nM	–
